Measured values taken from ChEMBL document CHEMBL4145538, “Recent progress in the structural modification and pharmacological activities of ligustrazine derivatives” (Eur J Med Chem, 2018).
In brackets after ≈: the same amount, converted by molar mass.

Key:
[1] = Half life in Sprague-Dawley rat at 20 mg/kg, iv; type: ADME, organism-based; conditions: in vivo
[2] = test system: ECV-304; test: Protection against H2O2-induced damage in human ECV304 cells preincubated for 24 hrs followed by H2O2 addition and measured after 12 hrs by MTT assay; type: functional, cell-based
[3] = test system: HepG2; test: Antiproliferative activity against human HepG2 cells at 10 uM after 72 hrs by MTT assay relative to control; type: functional
[4] = test system: MCF7; test: Antiproliferative activity against human MCF7 cells after 72 hrs by MTT assay; type: functional, cell-based; conditions: MCF7, 72 h
[5] = test system: HepG2; test: Antiproliferative activity against human HepG2 cells after 72 hrs by MTT assay; type: functional, cell-based; conditions: HepG2, 72 h
[6] = test system: HeLa; test: Antiproliferative activity against human HeLa cells after 72 hrs by MTT assay; type: functional, cell-based
[7] = test system: MDCK; test: Antiproliferative activity against MDCK cells at 10 uM after 72 hrs by MTT assay relative to control; type: cell-based, Canis lupus familiaris; conditions: dog
[8] = test system: Bel-7402; test: Antiproliferative activity against human Bel7402 cells after 72 hrs by MTT assay; type: functional, cell-based; conditions: Bel-7402, 72 h
[9] = test system: HT-29; test: Antiproliferative activity against human HT-29 cells after 72 hrs by MTT assay; type: functional, cell-based; conditions: HT-29, 72 h
[10] = test system: PC-12; test: Neuroprotection against CoCl2-induced toxicity in rat PC12 cells preincubated for 36 hrs followed by CoCl2 addition measured after 12 hrs by MTT assay; type: functional, cell-based
[11] = test system: Thoracic aorta; test: Vasodilatory activity in Sprague-Dawley rat thoracic aorta rings assessed as reduction in KCl-induced contraction; type: functional, tissue-based
[12] = test system: Mus musculus; test: Anti-inflammatory activity in Kunming mouse assessed as inhibition of xylene-induced ear edema at 100 mg/kg, ig administered once daily for 7 days relative to control; type: functional; conditions: po, 168 h
[13] = test system: Platelet; test: Antiplatelet activity in rabbit platelet rich plasma assessed as inhibition of ADP-induced platelet aggregation by cytometry; type: functional, cell-based; conditions: Oryctolagus cuniculus
[14] = test system: A2780; test: Antiproliferative activity against human A2780 cells; type: functional, cell-based
[15] = test system: A549; test: Antiproliferative activity against human A549 cells; type: functional, cell-based
[16] = test system: Bel-7402; test: Antiproliferative activity against human Bel7402 cells; type: functional, cell-based
[17] = test system: HCT-8; test: Antiproliferative activity against human HCT8 cells; type: functional, cell-based
[18] = test system: BGC-823; test: Antiproliferative activity against human BGC823 cells; type: functional, cell-based
[19] = test system: HUVEC; test: Protection against H2O2-induced damage in HUVEC; type: functional, cell-based; conditions: Homo sapiens
[20] = test system: PC-12; test: Neuroprotection against CoCl2-induced toxicity in rat PC12 cells; type: functional, cell-based
[21] = test system: HepG2; test: Antiproliferative activity against human HepG2 cells; type: functional, cell-based
[22] = test system: MDCK; test: Antiproliferative activity against MDCK cells; type: cell-based; conditions: Canis lupus familiaris
[23] = test system: HeLa; test: Antiproliferative activity against human HeLa cells; type: functional, cell-based
[24] = test system: HT-29; test: Antiproliferative activity against human HT-29 cells; type: functional, cell-based
[25] = test system: HUVEC; test: Protection against H2O2-induced damage in HUVEC preincubated for 0.5 hrs followed by H2O2 addition and measured after 12 hrs; type: functional, cell-based; conditions: Homo sapiens
[26] = test system: HUVEC; test: Potency index, ratio of ligustrazine EC50 to compound EC50 for protection against H2O2-induced damage in HUVEC; type: functional, Homo sapiens
[27] = test system: Staphylococcus epidermidis; test: Antibacterial activity against Staphylococcus epidermidis; type: functional
[28] = test system: Staphylococcus aureus; test: Antibacterial activity against Staphylococcus aureus; type: functional
[29] = test system: ECV-304; test: Potency index, ratio of ligustrazine EC50 to compound EC50 for protection against H2O2-induced damage in human ECV304 cells; type: functional

CCOC(=O)/C=C/c1cc(OC)c(OC(=O)c2nc(C)c(C)nc2C)c(OC)c1
half-life [1]: 3.03 h

CNC(=N)NC(=O)c1nc(C)c(C)nc1C
EC50 [2]: 97 µM

Cc1nc(C)c(COC(=O)[C@]23CC[C@@H](C(C)C)[C@H]2[C@@H]2CC[C@@H]4[C@@]5(C)CC[C@H](O)C(C)(C)[C@@H]5CC[C@@]4(C)[C@]2(C)CC3)nc1C
Activity [3]: 99.87%
IC50 [4]: 4.23 µM
IC50 [5]: 4.48 µM
IC50 [6]: 4.34 µM
Activity [7]: 26.5%
IC50 [8]: 4.19 µM
IC50 [9]: 5.23 µM

Cc1nc(C)c(COCc2ccc(OCc3nc(C)c(C)nc3C)cc2)nc1C
EC50 [10]: 1.66 µM

Cc1nc(C)c(COc2ccc(COc3ccc(C=O)cc3)cc2)nc1C
EC50 [11]: 751 µM

Cc1nc(C)c(COC(=O)c2cc(O)c3c(c2)C(=O)c2cccc(O)c2C3=O)nc1C
inhibition in vivo at 100 mg/kg [12]: 76.4%

COc1ccc(C(=O)NCc2nc(C)c(C)nc2C)cc1C(=O)NCc1nc(C)c(C)nc1C
IC50 [13]: 2790 µM

COc1cc(COCc2nc(C)c(C)nc2C)ccc1OCc1nc(C)c(C)nc1C
EC50 [10]: 1.07 µM

COc1cc(/C=C/C(=O)CC(=O)/C=C/c2ccc(OCc3nc(C)c(C)nc3C)c(OC)c2)ccc1OCc1nc(C)c(C)nc1C
IC50 [14]: 5.54 µg/mL (≈ 8.7 µM)
IC50 [15]: 5.89 µg/mL (≈ 9.25 µM)
IC50 [16]: 6.39 µg/mL (≈ 10 µM)
IC50 [17]: 7.11 µg/mL (≈ 11.2 µM)
IC50 [18]: 5.47 µg/mL

CC(=O)OC(C(=O)NCc1nc(C)c(C)nc1C)c1ccccc1 (configuration not stated)
EC50 [19]: 70 µM

COc1cc(C(=O)OCc2nc(C)c(C)nc2C)ccc1OCc1nc(C)c(C)nc1C
EC50 [20]: 4.25 µM

Cc1nc(C)c(COC(=O)[C@]23CCC(C)(C)C[C@H]2C2=CC[C@@H]4[C@@]5(C)CC[C@H](OC(=O)[C@@H](N)CCCCN)C(C)(C)[C@@H]5CC[C@@]4(C)[C@]2(C)CC3)nc1C
IC50 [21]: 2.27 µM
IC50 [22]: 2.31 µM
IC50 [18]: 2.48 µM
IC50 [23]: 2.38 µM
IC50 [24]: 2.35 µM

Cc1nc(C)c(CNC(=O)c2ccncc2)nc1C
EC50 [19]: 37 µM

Cc1nc(C)c(COC(=O)[C@]23CCC(C)(C)C[C@H]2C2=CC[C@@H]4[C@@]5(C)CC[C@H](O)C(C)(C)[C@@H]5CC[C@@]4(C)[C@]2(C)CC3)nc1C
IC50 [21]: 21.4 µM
IC50 [23]: 8.68 µM
IC50 [24]: > 25 µM

Cc1nc(C)c(/C=C/c2ccccc2Cl)nc1C
EC50 [25]: 0.0249 µM
Ratio EC50 [26]: 30000

Cc1nc(C)c(COc2ccc(N3CC(CNC(=O)CCl)OC3=O)cc2F)nc1C (configuration not stated)
MIC [27]: 4 µg/mL (≈ 9.16 µM)
MIC [28]: 8 µg/mL (≈ 18.3 µM)

COc1cc(C(=O)c2cccc(N(C)C)c2)ccc1OCc1nc(C)c(C)nc1C
EC50 [20]: 17.4 µM

Cc1nc(C)c(C(=O)NC(=N)NCc2cccc(Cl)c2)nc1C
EC50 [2]: 59 µM
Ratio EC50 [29]: 10

Cc1nc(C)c(CCOc2cccc3c2C(=O)c2c(OCCc4nc(C)c(C)nc4C)cc(C(=O)O)cc2C3=O)nc1C
inhibition in vivo at 100 mg/kg [12]: 17.5%

Cc1nc(C)c(C(=O)Oc2ccc(CO[N+](=O)[O-])cc2)nc1C
EC50 [11]: 93 µM

CCOC(=O)c1ccc(OCc2ccc(OCc3nc(C)c(C)nc3C)cc2)cc1
EC50 [11]: 751 µM

Cc1nc(C)c(COCCc2ccc(OCc3nc(C)c(C)nc3C)cc2)nc1C
EC50 [10]: 2.03 µM

Cc1nc(C)c(COc2ccc(COC(=O)c3cccnc3)cc2)nc1C
EC50 [11]: 379 µM

COc1ccc(/C=C/c2nc(C)c(C)nc2C)c(OC)c1OC
EC50 [25]: 5.76 µM

Cc1nc(C)c(C(=O)NC(=N)NCc2ccc(Cl)c(Cl)c2)nc1C
EC50 [2]: 94 µM

Cc1nc(C)c(COC(=O)CC[C@@H](C)[C@H]2CC[C@H]3[C@@H]4CC[C@@H]5C[C@H](O)CC[C@]5(C)[C@H]4C[C@H](O)[C@]23C)nc1C
IC50 [14]: 6.62 µg/mL (≈ 12.6 µM)
IC50 [15]: 6.69 µg/mL (≈ 12.7 µM)
IC50 [16]: 8.01 µg/mL (≈ 15.2 µM)
IC50 [17]: 7.43 µg/mL (≈ 14.1 µM)
IC50 [18]: 6.66 µg/mL

COc1cccc(/C=C/c2nc(C)c(C)nc2C)c1O
EC50 [25]: 28.9 µM

Cc1nc(C)c(COc2ccc(N3CC(CNC(=O)CCl)OC3=O)cc2)nc1C (configuration not stated)
MIC [27]: 8 µg/mL (≈ 19.1 µM)
MIC [28]: 8 µg/mL (≈ 19.1 µM)

Cc1nc(C)c(CNC(=O)C(O)c2ccccc2)nc1C (configuration not stated)
EC50 [19]: 55 µM

COc1ccc(/C=C/C(=O)NCc2nc(C)c(C)nc2C)c(OC)c1OC
EC50 [20]: 25 µM

Cc1nc(C)c(COC(=O)[C@]23CCC(C)(C)C[C@H]2C2=CC[C@@H]4[C@@]5(C)CC[C@H](OC(=O)CN)C(C)(C)[C@@H]5CC[C@@]4(C)[C@]2(C)CC3)nc1C
IC50 [21]: 2 µM
IC50 [22]: 4.88 µM
IC50 [18]: 3.06 µM
IC50 [23]: 3.26 µM
IC50 [24]: 2.5 µM

COc1cc(/C=C/C(=O)CC(=O)/C=C/c2ccc(O)c(OC)c2)ccc1O [CURCUMIN]
IC50 [14]: 6.52 µg/mL (≈ 17.7 µM)
IC50 [15]: 6.52 µg/mL (≈ 17.7 µM)
IC50 [16]: 6.5 µg/mL (≈ 17.6 µM)
IC50 [17]: 6.28 µg/mL (≈ 17 µM)
IC50 [18]: 6.81 µg/mL

Cc1nc(C)c(C)nc1C [LIGUSTRAZINE]
EC50 [25]: 788 µM
EC50 [20]: 60 to 64.5 µM
IC50 [4]: > 20 µM
EC50 [2]: 549 µM
EC50 [10]: 64.5 µM
EC50 [11]: 2330 µM
IC50 [5]: > 20 µM
IC50 [6]: > 20 µM
EC50 [19]: 600 µM
IC50 [8]: > 20 µM
IC50 [9]: > 20 µM

COc1ccc(C(=O)NCc2cccnc2)cc1C(=O)NCc1cccnc1 [PICOTAMIDE]
IC50 [13]: 49900 µM

O=C(O)c1cc(O)c2c(c1)C(=O)c1cccc(O)c1C2=O [RHEIN]
inhibition in vivo at 100 mg/kg [12]: 65.5%
